The values below come from article PMC8677766 (Nature Communications, 2021).

For this assay, the target named is T1, hRpn13 (Homo sapiens, UniProt Q16186).
T1 construct: gene ADRM1; hRpn13 Pru (1–150)
Kind of assay: ITC; NMR structure; 2D NMR; LC-MS adduct; tryptophan quenching. The class given is binding.

T1 sequence (Q16186 1-150): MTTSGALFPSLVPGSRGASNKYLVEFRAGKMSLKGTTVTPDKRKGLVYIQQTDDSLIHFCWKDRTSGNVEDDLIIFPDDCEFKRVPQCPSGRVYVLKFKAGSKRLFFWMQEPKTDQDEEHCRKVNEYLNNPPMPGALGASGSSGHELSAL

In general, Kd refers to the concentration at which binding is half-saturated. Low values mean tighter binding, high ones weaker binding. In the case of `Cc1ccc(C(=O)Nc2cccc(/C=C(\C#N)C(=O)Nc3ccccc3C(=O)O)c2)cc1` [XL5], the Kd came out at 1480 ± 520 nM.
